Source: patent US10722530B2, “Methods of diagnosing and treating cancer” (CASE WESTERN RESERVE UNIVERSITY, priority 2016, dated 2020)

Legend:
A2780 = assay: Clonogenic survival assay; type: cell-based; conditions: Homo sapiens; A2780 (p53 wt), 24 h treatment, colonies after at least 10 days
Method: (§4) Cancer cells (200-300 cells/well) were seeded in 6-well culture dishes and allowed to adhere overnight. For 5-FdU, cells were treated for 24 h, then gently washed with PBS, and incubated with fresh media for at least 10 days to allow individual colonies to form. […] After 10-18 days, the plates were stained with methylene blue. Colonies containing ≥50 cells were counted. The percentage of survival was determined relative to untreated control averaged over 3 independent experiments.

A375 = assay: Clonogenic survival assay; type: cell-based; conditions: Homo sapiens, A-375; A375 (p53 wt), 24 h treatment, colonies after at least 10 days
Method: as §4

[1] = tested on: HEC1A endometrial cancer cells; assay: Colony survival assay, shSCR and shUDG cells; type: cell-based, human
Method: UDG knockdown was performed via shRNA transduction with validated clone from Sigma-Aldrich. The ID of UDG shRNA clone is NM_003362.2-656s21c1. A non-targeted scramble control shRNA clone (Sigma-Aldrich) was also used. Transfection of shRNA clones was performed according to manufacturer's specifications from Lipofectamine 2000 (Invitrogen). Lentiviral particles were produced via HEK293 cells, and targeted cells were infected and selected with puromycin. The stable UDG knockdown levels were verified for q-PCR and western blot analysis.
DLD1 (200 cells/well) or HEC1A (300 cells/well) cells were plated in 6-well culture dishes and allowed to adhere for 16 h. Cells were treated with drug for 24 h, gently washed twice with 1×PBS, and incubated with fresh media for at least 10 days to allow individual colonies to form. Colonies were stained with methylene blue, and only colonies containing ≥50 cells were counted. The percentage of survival was determined relative to untreated control averaged over 3 independent experiments.

DLD1 cells [2] = assay: DNA fiber assay (replication fork progression); type: cell-based, human; conditions: 100 nM 5-FdU 24 h; for reduction of mean fiber length: vs untreated
Method: DNA fiber analysis was performed as described by Han et al. (J. Biol. (2015) 290:12370-8). Cells treated with 100 nM 5-FdU for 24 h were pulse-labeled with 100 μM chlorodeoxyuridine (CIdU) for 20 minutes, washed with PBS, and 25 μM Iododeoxyuridine (IdU) for 20 minutes. Cells were collected in PBS, and 2.5 μL of cell suspension was dropped on glass slide. 7.5 μL of lysis buffer (0.5% SDS, 200 mM Tris-HCl pH 7.4, 50 mM EDTA) was dropped on the cell suspension and lysis for 10 minutes. Slides were then tilted at 15° to spread the suspension and placed horizontally to allow air-dry. After drying, slides were fixed in 3:1 methanol:acetic acid for 15 minutes, washed with water, and placed at −20° C. overnight. Slides were then treated with 2.5 M HCl for 1 h, washed with PBS containing 0.1% Tween-20, washed twice with PBS, blocked in PBS containing 5% BSA and 0.1% Tween 20 for 20 minutes, and rinsed with PBS three times. After washing, 100 μL primary antibodies: mouse anti-BrdU/IdU (Becton Dickinson, 1:100) and rat anti-BrdU/CIdU (AbD Serotec, 1:400) diluted in PBS containing 5% BSA and 0.1% were added to incubate in a humid chamber for 4-6 h. After incubation, slides were washed with PBS three times, incubated with secondary fluorescent antibodies: sheep anti-mouse Alexa Fluor 488 (Life technologies) and donkey anti-rat Alexa Fluor 594 (Life technologies) diluted in PBS containing 5% BSA for 1 h. Slides were washed with PBS three times and mounted with Vectashield mounting medium. Image acquisition was performed on a Leica laser microscope. DNA fiber length was measured by using ImageJ software (NCl/NIH).

γH2AX foci in DLD1 cells = assay: γH2AX foci immunofluorescence staining; type: cell-based, human; conditions: 50 nM 5-FdU
Method: (§1) Cells cultured on glass coverslips were treated with 5-FdU in the presence or absence of 10 μM caspase inhibitor Q-VD-OPH (BioVision Inc). Cells were fixed in 3.7% formaldehyde for 10 minutes, blocked with PBS containing 10% FBS and 0.1% Triton X-100 for 20 minutes, washed with PBS three times, and incubated with primary anti-γH2AX antibody (Millipore, dilution: 1:150) in PBS containing 0.1% Triton X-100 at 4° C. overnight. The cells were then washed with PBS three times, incubated with secondary antibodies (Alexa Fluor 594, Life Technologies; dilution: 1:400) in PBS containing 0.1% Triton X-100 for 1 h, and washed with PBS three times. The slides were mounted with antifade solution with DAPI (Cell Signaling) and visualized on a Leica laser microscope.

[3] = tested on: γH2AX foci in HEC1A cells; assay: γH2AX foci immunofluorescence staining; type: cell-based, human; conditions: 50 nM 5-FdU
Method: as §1

[4] = tested on: cleaved PARP in DLD1 cells; assay: Western blot of cleaved PARP; type: cell-based, human; conditions: DLD1, 50 nM 5-FdU
Method: (§2) Western blots were performed as described in Yan et al. (Clin Cancer Res. (2007) 13:1532-39). Antibodies used were as follows: Anti-UDG (FL-313) (Santa Cruz Biotechnology), anti-Cleaved PARP (Asp214)(19F4) (Cell Signaling), and anti-α-Tubulin (Calbiochem).

[5] = tested on: cleaved PARP in HEC1A cells; assay: Western blot of cleaved PARP; type: cell-based, human; conditions: HEC1A, 50 nM 5-FdU
Method: as §2

[6] = tested on: cleaved PARP in HCT116 p53 WT cells; assay: Western blot of apoptotic proteins; type: cell-based, human; conditions: shSCR and shUDG, 25 nM 5-FdU 24 h
Method: (§3) Western blots were performed as previously described Yan et al., Clinical Cancer Research. 2007; 13(5):1532-9. Twenty microgram of protein was loaded on SDS-polyacrylamide gel. The following antibodies were used to detect proteins on the membrane: α-Tubulin (Calbiochem); GAPDH (Santa Cruz Biotechnology); UDG (FL-313) (Santa Cruz Biotechnology); cleaved PARP (Asp214)(19F4) (Cell Signaling); cleaved caspase 3 (Cell Signaling); p53 (FL-393) (Santa Cruz Biotechnology); and p21 (Santa Cruz Biotechnology). For quantitative RT-PCR, total RNA from cells was extracted by using RNeasy Plus Mini Kit (Qiagen). cDNA synthesis was performed by using SuperScript III First Strand Kit (Life Technologies).

[7] = tested on: cleaved PARP or activated caspase 3 in HCT116 p53 KO cells; assay: Western blot of apoptotic proteins; type: cell-based, human
Method: as §3

HCT116 p53 WT cells = conditions: HCT116 p53 WT, shUDG vs shSCR
Excerpt: (§5) p53 or UDG knockdown was achieved via shRNA transduction. Lentiviral vectors LV-THM-shp53 (which also expresses a GFP reporter) or LV-Bleo-shp53 to perform p53 KD in WT HCT116 cells were obtained from Case Western Reserve University, Cleveland, Ohio Lentiviral vector targeting GFP (sh-GFP) was used as control. UDG shRNA vectors (shUDG: NM_003362.2-656s21c1, shUDG-2: NM_003362.2-758s21c1, and shUDG-3: NM_003362.2-893s21c1) were purchased from Sigma, and a scramble targeting shRNA vector (Sigma) was used as paired control. The lentiviral production and infection were performed as previously described. Cells stably infected with LV-THM-p53 were isolated by cell sorting on the basis of their GFP expression.
as §4

p53 WT cancer lines = assay: Clonogenic survival assay, panel of p53 WT lines
Excerpt: as §5, §4

DLD1 cells [8] = assay: LC-MS/MS of uracil and 5-FU incorporated in cellular DNA; conditions: 5-FdU 100 and 200 nM 48 h
Method: Genomic DNA was extracted from cells treated with 5-FdU via phenol-chloroform mixture. 80 μg of DNA sample was dissolved in 1×UDG reaction buffer (20 mM Tris-HCl, 1 mM EDTA and 1 mM dithiothreitol, pH 8.0) and incubated with UDG enzyme (1 μL, 5 units) for 1 h at 37° C. For LC-MS/MS analysis of DNA-incorporated uracil and 5-FU, 75 μL of the enzyme reaction mixture was obtained, and uracil-1,3-^15N2 was used as the internal standard (Sigma-Aldrich). All uracil and 5-FU standards, internal standard, and QC samples were prepared in 1×UDG reaction buffer. […] Quantitation of the analytes was accomplished by a AB Sciex API 3200 triple quadrupole tandem mass spectrometer (AB Sciex), which was operated in the negative multiple-reaction-monitoring (MRM) mode with mass transitions of m/z 110.8>42.0 for uracil, m/z 112.9>43.0 for uracil-1,3-^15N2 and m/z 129.0>42.0 for 5-FU. This method has lower limits of quantitation of 2.50 ng/mL and linear calibration ranges up to 500 ng/mL for both uracil and 5-FU with a sample injection volume of 15 μL, as well as a total analysis time of 6 min.

[9] = tested on: p53 mutant or deficient lines; assay: Clonogenic survival assay, panel of p53 mutant or deficient lines; conditions: for resistance compared with p53 WT cells: cell lines with p53 mutation or deficiency vs p53 WT; for effect of UDG depletion on cytotoxicity: shUDG vs shSCR, p53 mutant or deficient cells
Excerpt: as §5, §4

O=c1[nH]c(=O)n([C@H]2C[C@H](O)[C@@H](CO)O2)cc1F [5-FdU, 5-fluorodeoxyuridine]
IC50 (A2780): 1.32 ± 0.33 nM
IC50 (A375): 111 ± 1.8 nM
cell survival in shSCR-transfected cells ([1]; HEC1A shSCR, high concentrations): moderate loss of cell viability
effect of UDG depletion on drug sensitivity ([1]; HEC1A shUDG vs shSCR): highly sensitized
mean fiber length of nascent DNA strands (DLD1 cells [2]; UDG depleted cells): 2.8 μm
reduction of mean fiber length (DLD1 cells [2]; UDG depleted cells): 63%
mean fiber length of nascent DNA strands (DLD1 cells [2]; shSCR-transfected cells): 5.7 μm
reduction of mean fiber length (DLD1 cells [2]; shSCR-transfected cells): 23%
γH2AX foci number and percentage of cells with over 10 foci over time (γH2AX foci in DLD1 cells; DLD1 UDG depleted): remained persistent
γH2AX foci number and percentage of cells with over 10 foci over time (γH2AX foci in DLD1 cells; DLD1 shSCR, after maximum at 12 h): gradually declined
γH2AX foci number and percentage of cells with over 10 foci over time ([3]; HEC1A UDG depleted): remained high
γH2AX foci number and percentage of cells with over 10 foci over time ([3]; HEC1A shSCR, after maximum at 48 h): reduced at 72 h and 96 h
time of 5-FdU treatment until appearance of cleaved PARP [4]: > 24 h
time of 5-FdU treatment until appearance of cleaved PARP [5]: > 96 h
expression of cleaved PARP [6]: induced at 48 h
induction of cleaved PARP or activated caspase 3 ([7]; p53 KO cells depleted of UDG, 48 h to 96 h): robustly induced
induction of cleaved PARP or activated caspase 3 ([7]; p53 KO cells expressing UDG, 25 nM 5-FdU 24 h): not detected
effect of UDG depletion on cytotoxicity (HCT116 p53 WT cells): did not significantly affect
resistance compared with p53 WT cells (HCT116 p53 KO cells; HCT116 p53 KO vs p53 WT): more resistant
effect of UDG depletion on cytotoxicity (HCT116 p53 KO cells; HCT116 p53 KO, shUDG vs shSCR): greatly enhanced cytotoxicity
IC50 (p53 WT cancer lines; read-out: IC50 values, p53 WT cancer lines except A375): < 10 nM
effect of UDG depletion on cytotoxicity (p53 WT cancer lines; shUDG vs shSCR, p53 WT cell lines): did not alter the cytotoxicity
released uracil and 5-FU from genomic DNA (DLD1 cells [8]; shSCR-transfected cells): Very low levels
released uracil and 5-FU from genomic DNA (DLD1 cells [8]; shUDG-transfected cells): significant increase
resistance compared with p53 WT cells [9]: significantly more resistant
resistance compared with p53 WT cells ([9]; listed as 5FdU): relatively more resistant
IC50 ([9]; read-out: IC50 values, p53 mutant or deficient lines): > 100 nM
effect of UDG depletion on cytotoxicity [9]: selectively sensitized
effect of UDG depletion on cytotoxicity ([9]; listed as 5FdU): overcame this resistance
